Results reported in US10221162B2, “Triazole agonists of the APJ receptor” (priority 2015, dated 2019).
Where two headings read alike, the source gives them in different places.

What was measured:
heart failure rat model = assay: In vivo cardiac contractility in heart failure (MI) rat model; conditions: heart failure rats, acute administration for 30 min; for cardiac contractility as measured by dP/dt: result in words
Experimental: Male Lewis rats (Charles River, USA) at 2-3 months of age were used for the study. […] APJ agonists were administered dose dependently acutely for a period of 30 min.
The interaction between […] (ACE2) and Apelin biology is complicated. To investigate the interaction between the Apelin-APJ and ACE signalling pathways, we examined the improvement in cardiac function with APJ small molecule agonists in the presence of ACE inhibitor captopril in heart failure rats in vivo.

[1] = test system: isolated perfused rat hearts; assay: Ex vivo isolated perfused rat heart (Langendorff) assay; conditions: percent change; for Isolated Heart Assay dP/dtmax (%): LV contractility; for Isolated Heart Assay dP/dtmin (%): LV relaxation
human APJ receptor = human APJ receptor (Homo sapiens (Human), UniProt P35414); assay: [35S]GTPγS binding assay (hAPJ SPA); format: biochemical
Sequence of human APJ receptor (P35414 whole entry): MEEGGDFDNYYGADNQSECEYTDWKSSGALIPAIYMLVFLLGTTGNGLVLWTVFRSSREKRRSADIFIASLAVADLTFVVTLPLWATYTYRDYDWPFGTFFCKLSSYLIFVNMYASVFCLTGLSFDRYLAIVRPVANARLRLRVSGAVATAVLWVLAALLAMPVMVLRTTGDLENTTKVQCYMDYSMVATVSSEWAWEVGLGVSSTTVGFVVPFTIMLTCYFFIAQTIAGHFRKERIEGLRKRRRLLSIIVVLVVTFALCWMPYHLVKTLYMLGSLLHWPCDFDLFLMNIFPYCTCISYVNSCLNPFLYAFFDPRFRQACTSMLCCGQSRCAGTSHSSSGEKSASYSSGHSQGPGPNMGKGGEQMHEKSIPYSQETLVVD
Experimental: The human APJ receptor was cloned by polymerase chain reaction and the gene encoding the receptor was subcloned in pFLAG-CMV™-3 expression vector (Sigma, Saint Louis, Mo. USA) in-house at Amgen. A GTPγS binding assay was performed on membranes prepared from CHO cells stably expressing human APJ receptor. The optimum experimental conditions for the concentrations of GDP, MgCl2, and NaCl in the assay buffer were initially determined. The assay was performed in assay buffer [20 mM HEPES, pH 7.5, 5 mM MgCl2, and 0.1% (w/v) BSA with 200 mM NaCl, 3 μM GDP] and membranes expressing human APJ receptor/well along with WGA PS beads. The reaction was initiated by addition of 0.2 nM [^35S]GTPγS (Perkin Elmer Life and Analytical Sciences, Waltham USA) in the absence or presence of various ligands and incubated at RT for 90 min. […] All the results presented are means of several independent experiments and analyzed by non-linear regression methods using commercially available program Prism (GraphPad, San Diego, Calif.) to obtain EC50 detailed in Table 58.

[2] = membranes from CHO cells stably expressing human APJ receptor, [35S]GTPγS, read-out: Activity hAPJ SPA EC50 IP

Compound: COc1cccc(OC)c1-n1c(NS(=O)(=O)[C@H](C)[C@@H](OC)c2ncc(Cl)cn2)nnc1-c1cncc(C)c1 (single isomer, unassigned) [Example 557.0]
- MI Rat Model dP/dtmax (%) (heart failure rat model): No effect
- Isolated Heart Assay dP/dtmax (%) [1]: 17.0%
- Isolated Heart Assay dP/dtmin (%) [1]: 20.0%

Compound: COc1cccc(-c2nnc(NS(=O)(=O)[C@@H](C)[C@H](O)c3ccccc3OC)n2-c2c(OC)cccc2OC)n1 (single isomer, unassigned) [Example 325.0]
- EC50 (human APJ receptor; [2]): 170 nM

Compound: CCOc1cccc(OC)c1-n1c(NS(=O)(=O)[C@@H](C)[C@H](OC)c2ncc(C)cn2)nnc1-c1cccc(OC)n1 (single isomer, unassigned) [Example 665.0, (1R,2S,P)—N-(4-(2-ethoxy-6-methoxyphenyl)-5-(6-methoxy-2-pyridinyl)-4H-1,2,4-triazol-3-yl)-1-methoxy-1-(5-methyl-2-pyrimidinyl)-2-propanesulfonamide or (1R,2S,M)-N-(4-(2-ethoxy-6-methoxyphenyl)-5-(6-methoxy-2-pyridinyl)-4H-1,2,4-triazol-3-yl)-1-methoxy-1-(5-methyl-2-pyrimidinyl)-2-propanesulfonamide]
- EC50 (human APJ receptor; [2]): 3.9 nM

Compound: COc1cccc(-c2nnc(NS(=O)(=O)[C@@H](C)[C@H](O)c3ccccc3OC)n2-c2c(OC)cccc2OC)n1 (single isomer, unassigned) [Example 324.0]
- EC50 (human APJ receptor; [2]): 14 nM

Compound: COc1cccc(-c2nnc(NS(=O)(=O)[C@@H](C)[C@H](O)c3ccccc3OC)n2-c2c(OC)cccc2OC)n1 (single isomer, unassigned) [Example 327.0]
- EC50 (human APJ receptor; [2]): 2 nM

Compound: COc1cccc(OC)c1-n1c(NS(=O)(=O)[C@H](C)[C@@H](C)c2ncc(Cl)cn2)nnc1-c1cccnc1 (racemic) [Example 694.0, (2R,3S)-3-(5-chloropyrimidin-2-yl)-N-(4-(2,6-dimethoxyphenyl)-5-(pyridin-3-yl)-4H-1,2,4-triazol-3-yl)butane-2-sulfonamide or (2S,3R)-3-(5-chloropyrimidin-2-yl)-N-(4-(2,6-dimethoxyphenyl)-5-(pyridin-3-yl)-4H-1,2,4-triazol-3-yl)butane-2-sulfonamide]
- MI Rat Model dP/dtmax (%) (heart failure rat model): 8%
- Isolated Heart Assay dP/dtmax (%) [1]: 18.0%
- Isolated Heart Assay dP/dtmin (%) [1]: 32.0%

Compound: COc1cccc(OC)c1-n1c(NS(=O)(=O)[C@@H](C)[C@H](O)c2ccc(C#N)cc2)nnc1-c1cncc(C)c1.COc1cccc(OC)c1-n1c(NS(=O)(=O)[C@H](C)[C@@H](O)c2ccc(C#N)cc2)nnc1-c1cncc(C)c1 (mixture of isomers) [Example 247.0, (1R,2S)-1-(4-cyanophenyl)-N-(4-(2,6-dimethoxyphenyl)-5-(5-methyl-3-pyridinyl)-4H-1,2,4-triazol-3-yl)-1-hydroxy-2-propanesulfonamide and (1S,2R)-1-(4-cyanophenyl)-N-(4-(2,6-dimethoxyphenyl)-5-(5-methyl-3-pyridinyl)-4H-1,2,4-triazol-3-yl)-1-hydroxy-2-propanesulfonamide]
- EC50 (human APJ receptor): 3.8 nM

Compound: COc1cccc(-c2nnc(NS(=O)(=O)[C@@H](C)[C@H](O)c3ccccc3OC)n2-c2c(OC)cccc2OC)n1 (single isomer, unassigned) [Example 326.0]
- EC50 (human APJ receptor; [2]): 22 nM

Compound: COc1cccc(-c2nnc(NS(=O)(=O)[C@@H](C)[C@H](OC)c3ncc(C)cn3)n2-c2c(OC)cccc2OC)n1 [Example 27.0, (1R,2S)—N-(4-(2,6-dimethoxyphenyl)-5-(6-methoxypyridin-2-yl)-4H-1,2,4-triazol-3-yl)-1-methoxy-1-(5-methylpyrimidin-2-yl)propane-2-sulfonamide]
- cardiac contractility as measured by dP/dt (heart failure rat model): increase in cardiac contractility

Compound: CCO[C@H](c1ncc(C)cn1)[C@H](C)S(=O)(=O)Nc1nnc(-c2cccnc2)n1-c1c(OC)cccc1OC [Example 109.0, (1R,2S)-N-(4-(2,6-dimethoxyphenyl)-5-(pyridin-3-yl)-4H-1,2,4-triazol-3-yl)-1-ethoxy-1-(5-methylpyrimidin-2-yl)propane-2-sulfonamide]
- cardiac contractility as measured by dP/dt (heart failure rat model): increase in cardiac contractility
